Counter-ions that a name gives are not always drawn.
How the values were obtained:
[1] = test system: urease in New York soil (Cazenovia silt loam, pH 7.0); assay: Urease Inhibition Efficacy Test in New York soil (Cazenovia silt loam); format: biochemical; details: 40 micrograms test compound per gram soil; 42.8 mg urea per 20 g air-dry soil; incubated at 25° C. for three days; remaining urea; run in triplicate
Experimental: (§1) Efficacy tests were conducted to evaluate the efficacy of certain representative aminophenol compounds as urease inhibitors. The inhibition tests were run in New York soil (Cazenovia silt loam, pH 7.0) or in Wisconsin soil (Plano silt loam, pH 5.4)
(§2) Evaluations (run in triplicate) consisted of applying 800 micrograms of the test compound in 5 ml of water and 42.8 mg of urea in 1 mL of water to 20 g of air-dry soil in a glass bottle. The bottle was capped with perforated aluminum foil and incubated at 25° C.C for three days prior to extraction with 100 mL of a 2M KCl solution containing 0.5 mg of phenylmercuric acetate. The extracts were then analyzed for remaining urea using an autoanalyzer. Percent inhibition was calculated as % Inhibition=[1-(A-B/A-C)]×100 where A is urea recovered from unincubated sample (urea added to soil and immediately extracted); B is urea recovered from inhibited sample; and C is urea recovered from the control (uninhibited sample).

[2] = test system: urease in Wisconsin soil (Plano silt loam, pH 5.4); assay: Urease Inhibition Efficacy Test in Wisconsin soil (Plano silt loam); format: biochemical; details: 40 micrograms test compound per gram soil; 42.8 mg urea per 20 g air-dry soil; incubated at 25° C. for three days; remaining urea; run in triplicate
Experimental: as §1, §2

Row | Compound | % Inhibition 40 micrograms per gram soil Cazenovia pH 7.0 [1] [%] | % Inhibition 40 micrograms per gram soil Wisconsin pH 5.4 [2] [%]
1 | 2,6-Dichloroiminophenol, sodium salt | 69 | –
2 | Nc1ccccc1O [2-aminophenol] | 8 | –
3 | O=C(Nc1ccc(O)cc1)c1ccccc1 [4'-Hydroxybenzanilide] | 50 | 14
4 | CN(C)c1ccc(O)cc1 [4-(N,N--dimethylamino)-phenol hydrochloride] | 77 | 49
5 | CNc1ccc(O)cc1 [4-(N--methylamino)phenol sulfate] | 82 | 55
6 | Oc1ccc(Nc2ccccc2)cc1 [4-(N--phenyl)aminophenol] | 69 | 53
7 | Nc1ccc(O)cc1 [4-aminophenol] | 46 | –
8 | O=C(O)CNc1ccc(O)cc1 [N--(4-Hydroxyphenyl)glycine] | 82 | 61
